# From patent publication US20240009205A1, “THERAPEUTIC COMBINATION FOR THE TREATMENT OF BREAST CANCER” (IFOM - FONDAZIONE ISTITUTO FIRC DI ONCOLOGIA MOLECOLARE, priority 2020, published 2024)
# Where two headings read alike, the source gives them in different places.
# Assays:
# [1] = test system: MCF7 cells; test: gene expression microarrays and GSEA in MCF7; format: cell-based, human; details: 5 μM TMX combined with STS
# [2] = test system: ER transcriptional activity; test: ER luciferase reporter assay and ER target gene expression; format: cell-based, human; details: HR+ BC cell lines, TFF1, PGR, GREB1 expression
# [3] = test system: metastases-derived organoids from patients with HR+ BC; test: organoid viability assay; format: cell-based, human; details: TMX with STS medium
# [4] = test system: HR+/HER2− BC cell lines; details: cited from earlier work
# [5] = test system: MCF7 cells; test: cell viability assay, control and EGR1-silenced MCF7; format: cell-based, human
# [6] = test system: EGR1, PTEN and 4E-BP1 levels in MCF7 cells; test: immunoblotting of EGR1, PTEN and 4E-BP1 in MCF7; format: cell-based, human; details: supplementation
# Description: For protein lysate generation from cultured cells, 5×10^4 MCF7, T47D or ZR-75-1 cells were plated in 6-well plates in CTR medium. After 24 h medium was removed, cells were washed with PBS and incubated either in CTR or STS medium. […] Where indicated, cells were supplemented with insulin ([…]), IGF1 (5 ng/ml), leptin ([…]), or 17β-estradiol (100 nM). 24 h later, cells were washed and protein lysates were generated as described elsewhere^34,35. Protein lysates from primary tumors or mouse uteri were obtained using TissueRuptor (Quiagen). Proteins (35 μg) were separated by SDS-PAGE, transferred to a PVDF membrane (Immobilon-P, Millipore S.p.A.), and detected with the following antibodies: anti-phospho-AKT (Ser473; #4058), anti-AKT (#9272), anti-PTEN (#9552), anti-phospho-p70S6kinase (Thr389; #9206), anti-p70S6kinase (#9202), anti-4E-BP1 (#4923), anti-phospho-eIF4E ([…]; #9741), anti-phospho-RB (Ser807/811; #9308), anti-RB (#9309), anti-CCND1 (#2978) were all from Cell Signaling Technology; anti-phospho-AMPK (Thr172; PA5-2 17831), anti-AMPK (PA5-29679), anti-EGR1 (MA5-15008) were from Thermo Fisher; anti-β-actin was from Santa Cruz Biotechnology. Band intensities were quantified by Quantity One SW software (Bio-Rad Laboratories, Inc.) using standard enhanced chemiluminescence.
compound,measurement,setting,value
"CC/C(=C(\c1ccccc1)c1ccc(OCCN(C)C)cc1)c1ccccc1 [TMX, tamoxifen]",cell cycle-related gene categories (GSEA),[1],downregulation
same,ER inhibition under STS,[2],enhanced
same,antitumor activity under STS,[3],increased the antitumor activity
same,"antitumor activity under STS (low-serum, low-glucose)",[4],increased the antitumor activity
AZD5363,protection of EGR1-silenced BC cells from combined ET and STS,[5],abolished such protection
"C[C@]12CC[C@@H]3c4ccc(O)cc4C[C@@H](CCCCCCCCC[S+]([O-])CCCC(F)(F)C(F)(F)F)[C@H]3[C@@H]1CC[C@@H]2O (stereo partly drawn) [FULV, fulvestrant]",ER inhibition under STS,[2],enhanced
same,"antitumor activity under STS (low-serum, low-glucose)",[4],increased the antitumor activity
C[C@]12CC[C@@H]3c4ccc(O)cc4CC[C@H]3[C@@H]1CC[C@@H]2O [17β-estradiol],"increase in EGR1, PTEN and 4E-BP1 induced by the TMX-STS combination",[6],"prevented the increase in EGR1, PTEN and 4E-PBP1"
CC(C)NC[C@@H](C(=O)N1CCN(c2ncnc3c2[C@H](C)C[C@H]3O)CC1)c1ccc(Cl)cc1 [GDC0068],protection of EGR1-silenced BC cells from combined ET and STS,"[5]; GDC0068 1 μM, AZD5363 400 nM, LY294002 2 μM",abolished such protection
